Results taken from US20090117170A1, “SEGMENTED DEVICE FOR THE DELAYED RELEASE OF MOLECULES IN A TANGENTIAL DIRECTION THROUGH THIN FILMS AND USES THEREOF” (CAPSULUTION NANOSCIENCE AG, priority 2004, published 2009).

Legend:
[1] = ibuprofen release from segmented glass release apparatus in phosphate saline buffer; type: physicochemical; details: 10 intersegment films, 37° C., phosphate saline buffer pH 7.4 with sodium azide
Experimental: A release apparatus was produced from glass discs 3 to 11 (soda-lime glass, edge lengths 26.0×26.0 mm, disc thickness of 1.0 mm) having a surface roughness of 0.172-1.39 Ra (see FIGS. 7A and 7B). The release apparatus consisted of 9 discs (26.0×26.0 mm) having a core drilling 13 (diameter=8 mm) and was closed off on both sides by two discs without a core drilling. Separate intersegment films were not used. A reservoir volume of theoretically 452.4 μl results in the case of 9 discs having a core drilling and a disc thickness of 1.0 mm. The release apparatus was filled with a model substance before closing (100 mg of crystalline ibuprofen) and the remaining reservoir volume was subsequently filled with release medium. Following this, the release behavior of the model substance was investigated at 37° C. in phosphate saline buffer pH 7.4 with addition of sodium azide. FIGS. 7C and 7D show the ibuprofen release from the segmented glass apparatus having 10 intersegment films in phosphate saline buffer pH 7.4 with addition of sodium azide. […] A release apparatus consisting of glass discs (soda-lime glass, edge lengths 26.0×26.0 mm, disc thickness of 1.0 mm) having a surface roughness of 0.172-1.39 Ra was produced (see FIGS. 7A and 7B), the discs being modified by a separating film covering only the outer edges of the discs such that an intersegment film thickness (hollow space) of about 50 μm was present. The release apparatus consisted of 9 discs 3 to 11 (26.0×26.0 mm) having a core drilling 13 (diameter=8 mm) and was closed off on both sides by two discs without a core drilling. Before closing, the release apparatus was filled with a model substance (100 mg of crystalline ibuprofen) and the remaining reservoir volume was subsequently filled with release medium. Following this, the release behavior of the model substance was investigated at 37° C. in phosphate saline buffer pH 7.4 with addition of sodium azide. […]

[2] = enalaprilate release from segmented silicon disc release apparatus; type: physicochemical
Source text: A release apparatus was produced from round silicon discs (outer diameter 14.0 mm, thickness 0.525 mm) having a very low surface roughness. The release apparatus consisted of 15 discs having a core drilling (diameter=8 mm), a silicon disc without a core drilling as a cover plate and a base plate having closable openings for filling. A silicon disc having a core drilling was glued onto the base plate of titanium. The release apparatus was assembled underwater and fixed by means of a holder. Subsequently, the reservoir was emptied through the reclosable openings in the base plate before the release apparatus was filled with an enalaprilate suspension.
As in Example 3, a release apparatus was produced from round silicon discs (outer diameter 14.0 mm, thickness 0.525 mm), the silicon discs being coated with polyelectrolyte multilayers. Before the assembly of the release apparatus, the silicon discs were coated with a 16 PAH/PSS layer.
As in Example 4, a release apparatus was produced from round coated silicon discs (outer diameter 14.0 mm, thickness 0.525 mm), 25 discs having a core drilling being used.

Row | Structure (SMILES) | release rate of the model substance (constant release behavior) ([1]; Example 1: glass apparatus, no separate films, 100 mg crystalline ibuprofen) | duration of constant release behavior ([1]; Example 1: glass apparatus, no separate films) | release rate of the model substance ([1]; Example 2: glass apparatus, modified film thickness (hollow space) about 50 μm, 100 mg crystalline ibuprofen, for 10 to 100 days) | release rate ([2]; Example 3: uncoated silicon discs, 15 intersegment films, enalaprilate suspension) | release rate ([2]; Example 4: silicon discs coated with 16 PAH/PSS layer, 15 modified intersegment films) | release rate ([2]; Example 5: coated silicon discs, 25 modified intersegment films)
1 | CC(C)Cc1ccc(C(C)C(=O)O)cc1 (stereo not drawn) [ibuprofen] | about 65 μg/d | more than 100 days | about 0.6 mg/d |  |  | 
2 | C[C@H](N[C@@H](CCc1ccccc1)C(=O)O)C(=O)N1CCC[C@H]1C(=O)O [enalaprilate] |  |  |  | about 150 μg per day | about 75 μg per day | about 140 μg per day
